Test results taken from US7528149B2 (Janssen Pharmaceutica N.V., priority 1999, dated 2009).
Where two headings read alike, the source gives them in different places.

What was measured:
Format in all cases: cell-based
[1] = Cytotoxicity in mock-infected HeLa cells (tetrazolium-based colorimetric assay); details: human
Text: (§1) The percent protection against cytopathology caused by viruses (antiviral activity or IC50) achieved by tested compounds and their cytotoxicity (CC50) were both calculated from dose-response curves. The selectivity of the antiviral effect is represented by the selectivity index (SI), calculated by dividing the CC50 (cytotoxic dose for 50% of the cells) by the IC50 (antiviral activity for 50% of the cells).
(§2) Automated tetrazolium-based colorimetric assays were used for determination of IC50 and CC50 of test compounds. Flat-bottom, 96-well plastic microtiter trays were filled with 180 μl of Eagle's Basal Medium, supplemented with 5% FCS (0% for FLU) and mM Hepes buffer. Subsequently, stock solutions (7.8× final test concentration) of compounds were added in 45 μl volumes to a series of triplicate wells so as to allow simultaneous evaluation of their effects on virus- and mock-infected cells. Five five-fold dilutions were made directly in the microtiter trays using a robot system. Untreated virus controls, and HeLa cell controls were included in each test. Approximately 100 TCID50 of Respiratory Syncytial Virus was added to two of the three rows in a volume of 50 μl. The same volume of medium was added to the third row to measure the cytotoxicity of the compounds at the same concentrations as those used to measure the antiviral activity. After two hours of incubation, a suspension (4×10^5 cells/ml) of HeLa cells was added to all wells in a volume of 50 μl. The cultures were incubated at 37° C. in a 5% CO2 atmosphere. Seven days after infection the cytotoxicity and the antiviral activity was examined spectrophotometrically. To each well of the microtiter tray, 25 μl of a solution of MTT (3-(4,5-dimethylthiazol-2-yl)-2,5-diphenyltetrazolium bromide) was added. The trays were further incubated at 37° C. for 2 hours, after which the medium was removed from each cup. Solubilization of the formazan crystals was achieved by adding 100 μl 2-propanol. Complete dissolution of the formazan crystals were obtained after the trays have been placed on a plate shaker for 10 min. Finally, the absorbances were read in an eight-channel computer-controlled photometer (Multiskan MCC, Flow Laboratories) at two wavelengths (540 and 690 nm). The absorbance measured at 690 nm was automatically subtracted from the absorbance at 540 nm, so as to eliminate the effects of non-specific absorption.

[2] = tested on: Respiratory Syncytial Virus; assay: In vitro screening for activity against Respiratory Syncytial Virus (tetrazolium-based colorimetric assay, protection against cytopathology in HeLa cells); details: for SI (selectivity index, CC50 divided by IC50): CC50 (HeLa) / IC50 (RSV); for IC50: read-out: IC50 (antiviral activity)
Text: as §1, §2

HeLa cells = assay: Cytotoxicity in mock-infected HeLa cells (tetrazolium-based colorimetric assay); details: human, 7 days
Text: as §1, §2

[3] = CC50 (cytotoxic dose for 50% of the cells)
[4] = mock-infected HeLa cells, MTT, seven days, read-out: CC50 (cytotoxic dose for 50% of the cells)
[5] = human respiratory syncytial virus, HeLa, 168 h

| Structure (SMILES) | SI (selectivity index, CC50 divided by IC50) [2] | CC50 at 7 days [1, 4] | IC50 [2, 5] | also measured |
| --- | --- | --- | --- | --- |
| CCOC(c1cccc(Br)n1)n1c(NC2CCN(CC(N)C(C)C)CC2)nc2ccccc21 (racemic) [Compound 10, (±)-N-[1-(2-amino-3-methylbutyl)-4-piperidinyl]-1-[(6-bromo-2-pyridinyl)-ethoxymethyl]-1H-benzimidazol-2-amine] | 63096 | – | – | CC50 at 7 days [1, 3]: 37900 nM; IC50 ([2]; human respiratory syncytial virus, HeLa, 168 h, RSV approx. 100 TCID50, HeLa cells, MTT read seven days after infection): 0.6 nM |
| CCOC(c1nc(C)ccc1OCc1ccccc1)n1c(NC2CCN(CCN)CC2)nc2ccccc21.Cl.Cl.Cl.O.O (racemic) [Compound 11, (±)-N-[1-(2-aminoethyl)-4-piperidinyl]-1-[ethoxy[6-methyl-3-(phenylmethoxy)-2-pyridinyl]-methyl]-1H-benzimidazol-2-amine trihydrochloride dihydrate] | 79 | 9950 nM | 126 nM | – |
| Cc1cccc(C(OCCO)n2c(NC3CCN(CCN)CC3)nc3ccccc32)n1 (racemic) [Compound 13, monohydrate] | >7943 | > 100000 nM | 12.6 nM | – |
| CCOC(c1cccc(Br)n1)n1c(NC2CCN(CC(N)C(C)C)CC2)nc2c(C)cccc21 (racemic) [Compound 87, monohydrate] | 31623 | 10100 nM | 0.32 nM | – |
| CCOC(c1cccc(C)n1)n1c(NC2CCN(CC(N)C(C)C)CC2)nc2ccccc21 (stereo not drawn) [Compound 58] | 1585 | – | – | CC50 (HeLa cells): 79400 nM; IC50 ([2]; RSV approx. 100 TCID50, HeLa cells, MTT read seven days after infection): 50.1 nM |
| CCOC(c1cccc(C)n1)n1c(NC2CCN(CC(N)C(C)C)CC2)nc2ccccc21 [Compound 67, [(A)(S)]-N-[1-(2-amino-3-methylbutyl)-4-piperidinyl]-1-[ethoxy(6-methyl-2-pyridinyl)methyl]-1H-benzimidazol-2-amine monohydrate] | – | – | – | CC50 at 7 days [1, 3]: 63400 nM; SI (selectivity index, CC50 divided by IC50) ([2]; monohydrate): 15849; IC50 ([2]; RSV approx. 100 TCID50, HeLa cells, MTT read seven days after infection, monohydrate): 4 nM |
| COCCOC(c1cccc(C)n1)n1c(NC2CCN(CC(N)C(C)C)CC2)nc2c(C)cc(Cl)cc21.Cl.Cl.Cl.O.O.O (stereo not drawn) [Compound 88, N-[1-(2-amino-3-methylbutyl)-4-piperidinyl]-6-chloro-1-[(2-methoxyethoxy)(6-methyl-2-pyridinyl)methyl]-4-methyl-1H-benzimidazol-2-amine trihydrochloride trihydrate] | 10000 | 20000 nM | 2 nM | – |
